In ChEMBL document CHEMBL3351786, “Drug discovery targeting cell division proteins, microtubules and FtsZ” (Bioorg Med Chem, 2014):

What was measured:
Assay type in all cases: functional
HeLa = test: Mitotic arrest in human HeLa cells assessed as apoptosis at 5 nM after 24 hrs by TUNEL assay
A2780 [1] = test: Resistance factor, ratio of IC50 for paclitaxel-resistant human 1A9PTX10 cells to ratio of IC50 for human A2780 cells
A2780 [2] = test: Resistance factor, ratio of IC50 for paclitaxel-resistant human 1A9PTX22 cells to ratio of IC50 for human A2780 cells

Compound	Activity (HeLa)	Ratio IC50 (A2780 [1])	Ratio IC50 (A2780 [2])
CCC(=O)O[C@H]1C(=O)[C@@]2(C)[C@H]([C@H](OC(=O)c3ccccc3)[C@]3(O)C[C@H](OC(=O)[C@H](O)[C@H](C=C(C)C)NC(=O)OC(C)(C)C)C(C)=C1C3(C)C)[C@]1(OC(C)=O)CO[C@@H]1C[C@@H]2O	70%	–	–
CCC(=O)O[C@H]1C(=O)[C@@]2(C)[C@H]([C@H](OC(=O)c3cccc(OC)c3)[C@]3(O)C[C@H](OC(=O)[C@H](O)[C@H](C=C(C)C)NC(=O)OC(C)(C)C)C(C)=C1C3(C)C)[C@]1(OC(C)=O)CO[C@@H]1C[C@@H]2O	–	4.8	5.1
